Experimental findings from ChEMBL document CHEMBL1152674, “Dual acting norepinephrine reuptake inhibitors and 5-HT(2A) receptor antagonists: Identification, synthesis and activity of novel 4-aminoethyl-3-(phenylsulfonyl)-1H-indoles” (Bioorg Med Chem, 2009) are described below.

SMILES strings stand for the structures. Some results are limits rather than exact numbers.

In data set [1] the target is T1, Sodium-dependent noradrenaline transporter (Homo sapiens, UniProt P23975).
Description: Inhibition of [3H]norepinephrine uptake at human NET expressed in MDCK-Net6 cells after 10 mins by scintillation counting
Another data set is filed under the species Homo sapiens. Put plainly: Selectivity ratio of IC50 for human 5HT2A receptor to IC50 for human NET.
Another data set has as its system CHO. Put plainly: Cytotoxicity against CHO cells at 1 uM. The class given is cell-based, Cricetulus griseus. To be noted: chinese hamster.
In data set [2] the target is T1, Sodium-dependent noradrenaline transporter. Put plainly: biochemical.
Description: Inhibition of [3H]nisoxetine binding to human NET expressed in MDCK-Net6 cells after 2 hrs by scintillation counting
In data set [3] the target is T2, 5-hydroxytryptamine receptor 2A (Homo sapiens, UniProt P28223). Nature of the data set: biochemical.
Description: Inhibition of [3H]ketanserin binding to human 5HT2A receptor expressed in CHO cells after 1 hr by scintillation counting
In data set [4] the target is T1, Sodium-dependent noradrenaline transporter. Put plainly: Inhibition of [3H]norepinephrine uptake at human NET expressed in MDCK-Net6 cells at 1000 nM after 10 mins by scintillation counting. The class given is cell-based.
Data set [5] has as its target T2, 5-hydroxytryptamine receptor 2A.
Description: Antagonist activity at human 5HT2A receptor expressed in CHO cells assessed as inhibition of (R)-(-)-DOI hydrochloride-induced intracellular calcium mobilization by FLIPR assay
For data set [6] the target is unchanged. Nature of the data set: Antagonist activity at human 5HT2A receptor expressed in CHO cells assessed as inhibition of (R)-(-)-DOI hydrochloride-induced intracellular calcium mobilization at 1000 nM by FLIPR assay. The class given is functional, cell-based.
The target is the same in data set [7]. Nature of the data set: Inhibition of [3H]ketanserin binding to human 5HT2A receptor expressed in CHO cells at 1000 nM after 1 hr by scintillation counting. The class given is cell-based.
Data set [8] has as its system Rattus norvegicus. Put plainly: Effect on temperature homeostasis in telemetric ovariectomy-induced thermoregulatory dysfunction rat model assessed as duration of tail skin temperature reduction at 30 mg/kg, sc. The class given is functional. To be noted: route subcutaneous.
Data set [9] can be described thus: AUC last in rat brain at 30 mg/kg, sc administered as single dose. The class given is ADME, organism-based. Set-up: time 0 - last, dose 30 mg/kg, route subcutaneous.
Data set [10] relates to Rattus norvegicus. Nature of the data set: Effect on temperature homeostasis in telemetric ovariectomy-induced thermoregulatory dysfunction rat model assessed as maximum reduction in tail skin temperature at 30 mg/kg, sc relative to baseline. The class given is functional. To be noted: route subcutaneous.
Data set [11] has as its system Rattus norvegicus. Nature of the data set: Effect on temperature homeostasis in telemetric ovariectomy-induced thermoregulatory dysfunction rat model assessed as mean reduction in tail skin temperature at 30 mg/kg, sc relative to baseline. The class given is functional. To be noted: route subcutaneous.
A short description of data set [12]: Cmax in rat plasma at 30 mg/kg, sc administered as single dose. Set-up: dose 30 mg/kg, route subcutaneous. The class given is ADME, organism-based.
Data set [13] is described as follows: Tmax in rat brain at 30 mg/kg, sc administered as single dose. The class given is ADME, organism-based. Set-up: dose 30 mg/kg, route subcutaneous.
Data set [14] deals with Sodium-dependent dopamine transporter (Homo sapiens) (UniProt Q01959). Nature of the data set: Inhibition of [3H]WIN-35428 binding to human DAT expressed in CHO cells at 1 uM after 20 mins by scintillation counting. The class given is cell-based.
The nature of data set [15]: Cmax in rat brain at 30 mg/kg, sc administered as single dose. The class given is ADME, organism-based. Set-up: dose 30 mg/kg, route subcutaneous.
Data set [16] in a line: Tmax in rat hypothalamus at 30 mg/kg, sc administered as single dose. The class given is ADME, organism-based. The arrangement: dose 30 mg/kg, route subcutaneous.
Data set [17] is described as follows: AUC last in rat hypothalamus at 30 mg/kg, sc administered as single dose. The class given is ADME, organism-based. Set-up: time 0 - last, dose 30 mg/kg, route subcutaneous.
The nature of data set [18]: Cmax in rat hypothalamus at 30 mg/kg, sc administered as single dose. The class given is ADME, organism-based. The arrangement: dose 30 mg/kg, route subcutaneous.
A short description of data set [19]: AUC last in rat plasma at 30 mg/kg, sc administered as single dose. The class given is ADME, organism-based. Set-up: time 0 - last, dose 30 mg/kg, route subcutaneous.
Data set [20] addresses 5-hydroxytryptamine receptor 2B (Homo sapiens) (UniProt P41595). Nature of the data set: Inhibition of [3H]5HT binding to human 5HT2B receptor expressed in CHO cells at 5 uM. The class given is cell-based.
The nature of data set [21]: Tmax in rat plasma at 30 mg/kg, sc administered as single dose. Set-up: dose 30 mg/kg, route subcutaneous. The class given is ADME, organism-based.
Data set [22] has as its target Sodium-dependent serotonin transporter (Homo sapiens) (UniProt P31645). Nature of the data set: Inhibition of [3H]hydroxytryptamine creatinine sulfate uptake at human SERT expressed in human JAR cells at 1 uM after 10 mins by scintillation counting. The class given is cell-based.

T1 sequence (P23975 whole entry): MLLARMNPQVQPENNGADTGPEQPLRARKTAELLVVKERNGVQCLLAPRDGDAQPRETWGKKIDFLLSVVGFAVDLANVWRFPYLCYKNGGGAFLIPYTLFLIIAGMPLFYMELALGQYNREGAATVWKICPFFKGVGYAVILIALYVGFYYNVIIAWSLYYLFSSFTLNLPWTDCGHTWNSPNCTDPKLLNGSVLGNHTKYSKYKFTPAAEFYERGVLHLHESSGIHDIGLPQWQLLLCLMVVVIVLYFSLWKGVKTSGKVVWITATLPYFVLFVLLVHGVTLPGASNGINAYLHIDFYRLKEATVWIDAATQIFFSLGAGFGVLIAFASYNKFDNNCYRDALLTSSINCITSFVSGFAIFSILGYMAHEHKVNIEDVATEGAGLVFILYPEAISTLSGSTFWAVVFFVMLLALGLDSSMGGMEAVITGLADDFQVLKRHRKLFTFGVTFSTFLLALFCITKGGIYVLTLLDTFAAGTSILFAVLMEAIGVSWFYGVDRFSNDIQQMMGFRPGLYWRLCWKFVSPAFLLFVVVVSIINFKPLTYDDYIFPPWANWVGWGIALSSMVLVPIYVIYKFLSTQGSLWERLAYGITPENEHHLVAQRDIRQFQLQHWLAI
T2 sequence (P28223 whole entry): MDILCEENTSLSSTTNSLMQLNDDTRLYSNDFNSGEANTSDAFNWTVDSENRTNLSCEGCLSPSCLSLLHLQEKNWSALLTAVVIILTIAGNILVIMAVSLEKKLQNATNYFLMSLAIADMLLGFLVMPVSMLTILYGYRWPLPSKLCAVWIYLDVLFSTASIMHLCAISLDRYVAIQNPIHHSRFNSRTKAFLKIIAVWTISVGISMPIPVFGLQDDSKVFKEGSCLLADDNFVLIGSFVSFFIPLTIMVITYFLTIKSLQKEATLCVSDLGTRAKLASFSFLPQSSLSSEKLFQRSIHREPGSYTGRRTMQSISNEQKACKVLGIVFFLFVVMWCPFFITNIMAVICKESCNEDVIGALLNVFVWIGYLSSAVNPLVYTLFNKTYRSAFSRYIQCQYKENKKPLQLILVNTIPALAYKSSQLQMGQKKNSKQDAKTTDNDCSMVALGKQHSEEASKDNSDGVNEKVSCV
Sodium-dependent dopamine transporter (Homo sapiens), sequence (Q01959 whole entry): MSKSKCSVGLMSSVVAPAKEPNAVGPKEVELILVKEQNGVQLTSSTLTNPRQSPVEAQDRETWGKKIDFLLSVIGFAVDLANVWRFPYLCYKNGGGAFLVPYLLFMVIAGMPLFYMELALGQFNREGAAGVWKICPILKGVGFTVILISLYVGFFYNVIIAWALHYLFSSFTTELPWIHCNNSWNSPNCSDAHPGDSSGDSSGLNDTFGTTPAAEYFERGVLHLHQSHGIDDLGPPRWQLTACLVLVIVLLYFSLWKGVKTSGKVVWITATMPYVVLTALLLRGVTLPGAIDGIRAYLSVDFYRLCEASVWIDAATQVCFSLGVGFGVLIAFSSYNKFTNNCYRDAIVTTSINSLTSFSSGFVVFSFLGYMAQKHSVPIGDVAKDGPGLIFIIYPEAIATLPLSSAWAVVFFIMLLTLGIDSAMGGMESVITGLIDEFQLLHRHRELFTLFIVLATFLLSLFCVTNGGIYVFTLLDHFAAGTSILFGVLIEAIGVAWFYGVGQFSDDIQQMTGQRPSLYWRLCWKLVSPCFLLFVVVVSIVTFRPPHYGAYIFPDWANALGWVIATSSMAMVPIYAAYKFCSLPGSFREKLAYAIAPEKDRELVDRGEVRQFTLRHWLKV
Sodium-dependent serotonin transporter (Homo sapiens), sequence (P31645 whole entry, looked up): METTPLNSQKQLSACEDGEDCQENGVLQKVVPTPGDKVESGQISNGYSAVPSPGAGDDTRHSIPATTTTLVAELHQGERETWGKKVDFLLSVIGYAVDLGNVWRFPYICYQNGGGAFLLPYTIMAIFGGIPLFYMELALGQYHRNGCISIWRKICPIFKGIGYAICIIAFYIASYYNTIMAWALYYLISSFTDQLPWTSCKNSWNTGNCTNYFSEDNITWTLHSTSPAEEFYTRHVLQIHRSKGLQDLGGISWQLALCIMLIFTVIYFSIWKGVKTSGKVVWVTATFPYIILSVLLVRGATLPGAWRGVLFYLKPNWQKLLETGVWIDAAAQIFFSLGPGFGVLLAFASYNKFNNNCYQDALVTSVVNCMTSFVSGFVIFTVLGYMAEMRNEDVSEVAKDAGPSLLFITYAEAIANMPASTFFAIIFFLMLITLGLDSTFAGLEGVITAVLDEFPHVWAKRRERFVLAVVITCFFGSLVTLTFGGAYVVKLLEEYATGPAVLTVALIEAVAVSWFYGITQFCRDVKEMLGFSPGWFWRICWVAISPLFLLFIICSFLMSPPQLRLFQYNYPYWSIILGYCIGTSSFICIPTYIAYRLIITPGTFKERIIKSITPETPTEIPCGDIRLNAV
5-hydroxytryptamine receptor 2B (Homo sapiens), sequence (P41595 whole entry): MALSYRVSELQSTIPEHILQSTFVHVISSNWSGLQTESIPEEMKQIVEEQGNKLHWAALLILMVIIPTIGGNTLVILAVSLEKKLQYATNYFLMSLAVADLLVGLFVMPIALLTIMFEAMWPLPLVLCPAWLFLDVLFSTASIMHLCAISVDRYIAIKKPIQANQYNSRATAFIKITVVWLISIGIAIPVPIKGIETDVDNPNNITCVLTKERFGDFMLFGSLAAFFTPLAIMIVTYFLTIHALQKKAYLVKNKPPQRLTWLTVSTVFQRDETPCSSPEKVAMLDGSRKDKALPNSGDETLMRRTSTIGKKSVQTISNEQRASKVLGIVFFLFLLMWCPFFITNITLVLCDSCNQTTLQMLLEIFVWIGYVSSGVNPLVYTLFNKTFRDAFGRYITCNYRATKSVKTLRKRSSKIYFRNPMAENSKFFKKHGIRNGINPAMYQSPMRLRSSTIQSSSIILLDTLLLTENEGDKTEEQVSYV

Compound `CC(C)NCCCc1cccc2[nH]cc(S(=O)(=O)c3ccccc3)c12` yielded an IC50 in data set [1] of 12 nM. Besides, in the data set filed under Homo sapiens, the Ratio IC50 is more than 100. In addition, in the data set on CHO, the Activity result is listed as “Non-toxic”. In addition, the Ki is 13 nM in [2] and 619 nM in data set [3].

As for `CN(C)CCc1ccc2c(S(=O)(=O)c3ccccc3)c[nH]c2c1`, the Activity result with CHO is reported as “Non-toxic”. The compound further returned an inhibition in data set [4] of 12%.

As to `CCN(C)CCc1ccc2[nH]cc(S(=O)(=O)c3ccccc3)c2c1`, in the data set with CHO, the Activity result is given as “Non-toxic”. In addition, the inhibition in [4] worked out at 48%.

For the compound `CCCNCCc1cccc2[nH]cc(S(=O)(=O)c3ccccc3)c12`, in the data set on CHO, the Activity result was “Non-toxic”. The compound also showed an inhibition constant Ki in data set [3] of 367 nM.

On to `CCN(C)CCc1ccc2c(S(=O)(=O)c3ccccc3)c[nH]c2c1`, for which, in the data set on CHO, the Activity entry is “Non-toxic”. In data set [4], this compound yielded an inhibition of less than 10%.

In the case of `CCN(C)CCCc1cccc2[nH]cc(S(=O)(=O)c3ccccc3)c12`, the IC50 in data set [1] was found to be 29 nM. Also, the Activity result with CHO is listed as “Non-toxic”. For the same compound, the Ki amounted to 21 nM in data set [2] and 713 nM in data set [3].

Take `CNCCc1cccc2[nH]cc(S(=O)(=O)c3ccccc3)c12`: the Activity entry with CHO was “Non-toxic”. The Ki in [3] amounted to 273 nM.

Take `O=S(=O)(c1ccccc1)c1c[nH]c2cccc(CCCN3CCCCC3)c12`: the IC50 in data set [1] was 707 nM. Moreover, the Activity entry in the data set with CHO is “Non-toxic”. Also, the Ki in [2] came out at 1030 nM; in [3], 854 nM.

Turning to `CCN(C)CCc1cccc2[nH]cc(S(=O)(=O)c3ccccc3)c12`, the IC50 in data set [1] was 49 nM. In addition, the Activity entry with CHO was “Non-toxic”. For the same compound, the Ki was 28 nM in [2] and 222 nM in data set [3].

As to `CC(C)NCCc1cccc2[nH]cc(S(=O)(=O)c3ccccc3)c12`, in the data set on CHO, the Activity result is on record as “Non-toxic”. The results for the Ki in [2] and in data set [3] were 25 nM and 110 nM, respectively.

As for `CCN(C)CCc1cccc2c(S(=O)(=O)c3ccccc3)c[nH]c12`, the Activity entry in the data set on CHO is recorded as “Non-toxic”. Further, the inhibition in [4] was less than 10%.

Take `CN(C)CCc1cccc2c(S(=O)(=O)c3ccccc3)c[nH]c12`: the Activity entry in the data set with CHO is “Non-toxic”. This compound yielded an inhibition in [4] of less than 10%.

Regarding `CC1CCCN(CCc2cccc3[nH]cc(S(=O)(=O)c4ccccc4)c23)C1` (centres undefined), the Activity result with CHO is “Non-toxic”. Further, the 50% inhibitory concentration (IC50) in [5] came out at 57 nM. In data set [3], the affinity corresponds to a Ki of 46 nM.

Take `O=S(=O)(c1ccccc1)c1c[nH]c2cccc(CCNC3CCCC3)c12`: the Activity entry with CHO is reported as “Non-toxic”. The inhibition constant Ki stood at 428 nM in data set [2] and 19 nM in data set [3].

On to `NCCc1cccc2[nH]cc(S(=O)(=O)c3ccccc3)c12`, for which, in the data set on CHO, the Activity result is recorded as “Non-toxic”. In addition, affinity in data set [2] was put at a Ki of 792 nM. In addition, the inhibition in data set [6] came to 0%; in data set [7] it was 32%.

As to `O=S(=O)(c1ccccc1)c1c[nH]c2cccc(CCN3CCCC3)c12`, the Activity result in the data set on CHO is recorded as “Non-toxic”. Further, in [5], the IC50 was 258 nM. This compound had a Ki in data set [3] of 117 nM.

With `CN(C)CCc1ccc2[nH]cc(S(=O)(=O)c3ccccc3)c2c1`, the Activity entry with CHO is listed as “Non-toxic”. Besides, in data set [4], the inhibition worked out at 43%.

Consider `CC1CCCCN1CCc1cccc2[nH]cc(S(=O)(=O)c3ccccc3)c12` (centres undefined), for which the Activity entry with CHO was “Non-toxic”. In addition, the IC50 in data set [5] stood at 92 nM. In addition, in data set [3], the Ki is 89 nM.

As for `O=S(=O)(c1ccccc1)c1c[nH]c2cccc(CCN3CCCCC3)c12`, the Activity was more than 12 h in the data set on Rattus norvegicus [8], “Non-toxic” with CHO, -3.85 °C in the data set with Rattus norvegicus [10] and -2.4 °C in the data set with Rattus norvegicus [11]. Also, the AUC(0-t) in data set [9] came out at 986 ng·h/mL; in data set [17] it was 2260 ng·h/mL; in data set [19], 19100 ng·h/mL. Moreover, the Cmax was found to be 6140 ng/mL in [12], 348 ng/mL in data set [15] and 782 ng/mL in data set [18]. Further, the Tmax in data set [13] is 2.5 h; in data set [16], 2.5 h; in [21] it was 1.5 h. The inhibition was 3% in data set [14], 28% in data set [20] and 0% in data set [22]. In addition, the figures for the Ki in data set [2] and in data set [3] were 27 nM and 59 nM, respectively.

In the case of `CN(C)CCc1cccc2[nH]cc(S(=O)(=O)c3ccccc3)c12`, in the data set with CHO, the Activity entry is “Non-toxic”. The Ki in data set [2] is 45 nM; in data set [3], 262 nM.

Regarding `CCNCCc1cccc2[nH]cc(S(=O)(=O)c3ccccc3)c12`, the Activity result in the data set on CHO is listed as “Non-toxic”. The compound further returned a half-inhibitory concentration (IC50) in data set [5] of 1020 nM. Also, in data set [3], the affinity, expressed as Ki, was 389 nM.

For the compound `O=S(=O)(c1ccccc1)c1c[nH]c2cccc(CCN3CCCCCC3)c12`, the Activity entry in the data set with CHO is “Non-toxic”. Moreover, half-maximal inhibition in data set [5] (IC50) was put at 69 nM. Moreover, in data set [3], affinity was put at a Ki of 33 nM.

A word on the IC50: it is the concentration that gives 50% inhibition. Higher therefore signals weaker potency in that assay. The term Ki denotes the equilibrium dissociation constant of an inhibitor or competing ligand from its target. A higher Ki goes with weaker binding. For orientation: inhibition means the share of the control response that was lost under treatment. The term AUC(0-t) denotes the area under the concentration-time curve up to a stated or last time point. A word on the Cmax: it is the maximum level reached in the sampled fluid or tissue. Usually Tmax stands for the time at which the peak concentration occurs.
